From patent publication US20250296971A1, “GASTRIC INHIBITORY PEPTIDE RECEPTOR LIGANDS” (priority 2021, published 2025)
Where two headings read alike, the source gives them in different places. *1 amine or outer side, *2 acyl side, *3 side chain or, on linkers, in order; H or OH if unused. Where a SMILES comes first, the peptide text is derived from it. Bridges are numbered along the chain shown (N, C = ends). [ ]: non-standard residue; d: D form. The star is where a group is joined. X5 = NC(=O)[C@H](CCCCNC(=O)CN1CCN(CC(=O)O)CCN(CC(=O)O)CCN(CC(=O)O)CC1)NC(=O)CCC(=O)NCCCOCCOCCOCCCN*; DOTA(Lu) = O=C1CN2CCN3CCN(CC(=O)*)CCN(CC2)CC(=O)[O][Lu]([O]1)[O]C(=O)C3; X3 = O=C(O)CN1CCN(CC(=O)O)CCN(CC(=O)NCCCOCCOCCOCCCN*)CCN(CC(=O)O)CC1; NH(1-deoxy-D-glucityl) = OC[C@@H](O)[C@@H](O)[C@H](O)[C@@H](O)CN*; Pro(trans-4-NH2) = O=C([C@@H]1C[C@@H](N[*:3])CN1[*:1])[*:2]; DOTA = O=C(O)CN1CCN(CC(=O)O)CCN(CC(=O)*)CCN(CC(=O)O)CC1; Trp(5-Cl) = N[C@@H](Cc1c[nH]c2ccc(Cl)cc12)C(=O)O; Pyridine(2,6-diCH2) = c1cc(C[*:1])nc(C[*:2])c1; Trp(6-F) = N[C@@H](Cc1c[nH]c2cc(F)ccc12)C(=O)O; Oic = O=C(O)[C@@H]1C[C@@H]2CCCC[C@@H]2N1; Phe(2-Cl) = N[C@@H](Cc1ccccc1Cl)C(=O)O; Pro(4R-NH2) = N[C@H]1CN[C@H](C(=O)O)C1; 1Nal = N[C@@H](Cc1cccc2ccccc12)C(=O)O; Pro(3S-OH) = O=C(O)[C@H]1NCC[C@@H]1O; mXylylene = c1cc(C[*:1])cc(C[*:2])c1; Glutaryl = O=C(CCCC(=O)[*:2])[*:1]; X7 = c1cc(CSCCN[*:2])cc(C[*:1])c1; Hyp = O=C(O)[C@@H]1C[C@@H](O)CN1; X1 = O=C(CN1CCC(N[*:1])CC1)[*:2]; Suc = O=C(CCC(=O)[*:2])[*:1]; hSer = N[C@@H](CCO)C(=O)O; Api = NC1(C(=O)O)CCNCC1; Thp = NC1(C(=O)O)CCOCC1; Aib = CC(C)(N)C(=O)O

What was measured:
[1] = biological target: human Gastric Inhibitory Peptide Receptor (human) (UniProt P48546); test: FACS competition with GIP-057 on CHO-K1-hGIPR cells; pIC50 category A: >8.0
[2] = biological target: T1, GIPR (CHO-K1-hGIPR cells) (Homo sapiens, UniProt P48546); test: FACS binding assay
T1 construct: host or cells: CHO-K1
T1 sequence (P48546 22-466): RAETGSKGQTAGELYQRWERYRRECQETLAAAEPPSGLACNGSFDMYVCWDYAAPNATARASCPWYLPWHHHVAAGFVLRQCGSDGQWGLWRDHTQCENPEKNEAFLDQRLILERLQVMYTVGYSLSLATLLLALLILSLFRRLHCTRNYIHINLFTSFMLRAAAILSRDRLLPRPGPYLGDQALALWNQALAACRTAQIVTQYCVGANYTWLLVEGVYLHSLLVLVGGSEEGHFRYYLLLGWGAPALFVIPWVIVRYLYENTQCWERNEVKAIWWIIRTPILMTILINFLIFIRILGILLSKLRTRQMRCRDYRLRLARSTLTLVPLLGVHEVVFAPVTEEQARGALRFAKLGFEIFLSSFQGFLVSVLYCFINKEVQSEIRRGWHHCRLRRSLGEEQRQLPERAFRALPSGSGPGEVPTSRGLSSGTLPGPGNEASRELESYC
Procedure, shortened: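 CHO-K1 cells expressing human GIPR, washed in PBS/1% FCS, then stained with 1 μg/mL APC-streptavidin for 30 min on ice.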

[3] = competition with 20 nM GIP-057, 4° C., 1 hour, read-out: pIC50 Category (converted)
[4] = competition with 20 nM GIP-057, 4° C. for 1 hour, read-out: pIC50 Category (converted)

Row | Compound | pIC50 [1] | IC50 [2, 3] | other results
1 | DOTA-Asp-Trp-5Clw-Hyp-Glu-leu-[Cys(2Lut)-Thp-Leu-Ile-Cys]-NH2 (peptide) | > 8 pic50 |  | 
2 | DOTA-APAc-Asp-Trp-5Clw-Hyp-Glu-leu-[Cys(2Lut)-Apc(AGLU-Glutar)-Leu-Ile-Cys]-APAc-glu(AGLU)-NH2 (peptide) | > 8 pic50 |  | 
3 | Ac-Cya-Trp-5Clw-Hyp-Glu-leu-[Cys(2Lut)-Thp-Leu-Ile-Cys]-NH2 (peptide) | > 8 pic50 |  | 
4 | CC[C@H](C)[C@@H]1NC(=O)[C@H](CC(C)C)NC(=O)C(C)(C)NC(=O)[C@@H](NC(=O)[C@@H](CC(C)C)NC(=O)[C@H](CCC(=O)O)NC(=O)[C@@H]2CCCN2C(=O)[C@H](Cc2cccc3ccccc23)NC(=O)[C@H](Cc2c[nH]c3cc(F)ccc23)NC(=O)[C@H](CC(=O)O)NC(C)=O)CSCc2cccc(c2)CSC[C@@H](C(=O)NCCCOCCOCCOCCCNC(=O)CCC(=O)N[C@@H](CCCCNC(=O)CN2CCN(CC(=O)O)CCN(CC(=O)O)CCN(CC(=O)O)CC2)C(N)=O)NC1=O [GIP-084, Ac-Asp-6Fw-Ni-Pro-Glu-leu-[Cys(3MeBn)-Aib-Leu-Ile-Cys]-Ttds-Lys(DOTA)-NH2] (Ac-D[Trp(6-F)][1Nal]PE[dL]C[Aib]LIC-X5; linker 7-11 via mXylylene) |  | < 10 nM | 
5 | CC[C@H](C)[C@@H]1NC(=O)[C@H](CC(C)C)NC(=O)C2(CCN(C(=O)CN3CCN(CC(=O)O)CCN(CC(=O)O)CCN(CC(=O)O)CC3)CC2)NC(=O)[C@@H](NC(=O)[C@@H](CC(C)C)NC(=O)[C@H](CCC(=O)O)NC(=O)[C@@H]2C[C@@H](N)CN2C(=O)[C@H](Cc2c[nH]c3ccc(Cl)cc23)NC(=O)[C@H](Cc2c[nH]c3ccccc23)NC(=O)[C@H](CCO)NC(=O)CN2CCC(NC(=O)CCCC(=O)NC[C@H](O)[C@@H](O)[C@H](O)[C@H](O)CO)CC2)CSCc2cccc(n2)CSC[C@@H](C(=O)NC2CCN(CC(=O)N[C@H](CCC(=O)NC[C@H](O)[C@@H](O)[C@H](O)[C@H](O)CO)C(N)=O)CC2)NC1=O [GIP-050, AGLU-Glutar-APAc-Hse-Trp-5Clw-Tap-Glu-leu-[Cys(2Lut)-Apc(DOTA)-Leu-Ile-Cys]-APAc-glu(AGLU)-NH] ({NH(1-deoxy-D-glucityl)-Glutaryl}-[X1][hSer]W[Trp(5-Cl)][Pro(4R-NH2)]E[dL]C[Api](DOTA)LIC[X1][dE](NH(1-deoxy-D-glucityl))-NH2; linker 8-12 via Pyridine(2,6-diCH2)) |  | 10 to 79.4 nM | 
6 | CC[C@H](C)[C@@H]1NC(=O)[C@H](CC(C)C)NC(=O)C(C)(C)NC(=O)[C@@H](NC(=O)[C@H](CC(C)C)NC(=O)[C@H](CCC(=O)O)NC(=O)[C@@H]2C[C@@H]3CCCC[C@@H]3N2C(=O)[C@H](Cc2cccc3ccccc23)NC(=O)[C@H](Cc2c[nH]c3ccccc23)NC(=O)[C@H](CC(=O)O)NC(C)=O)CSCc2cccc(c2)CSC[C@@H](C(N)=O)NC1=O [GIP-252, Ac-Asp-Trp-1Ni-Pip-Glu-Leu-[Cys(3MeBn)-Aib-Leu-Ile-Cys]-NH2] (Ac-DW[1Nal][Oic]ELC[Aib]LIC-NH2; linker 7-11 via mXylylene) |  |  | IC50 [2, 4]: 10 to 79.4 nM
7 | CC[C@H](C)[C@@H]1NC(=O)[C@H](CC(C)C)NC(=O)C2(CCOCC2)NC(=O)[C@@H](NC(=O)[C@@H](CC(C)C)NC(=O)[C@H](CCC(=O)O)NC(=O)[C@@H]2C[C@@H](O)CN2C(=O)[C@H](Cc2c[nH]c3ccc(Cl)cc23)NC(=O)[C@H](Cc2c[nH]c3ccccc23)NC(=O)CCC(=O)O)CSCc2cccc(n2)CSC[C@@H](C(=O)NC2CCN(CC(=O)N[C@@H](CCCCNC(=O)CN3CCN4CCN5CCN(CC3)CC(=O)[O][Lu]([O]C(=O)C4)[O]C(=O)C5)C(N)=O)CC2)NC1=O [GIP-170, HO-Succinyl-Trp-5Clw-Hyp-Glu-leu-[Cys(2Lut)-Thp-Leu-Ile-Cys]-APAc-Lys(LuDOTA)-NH2] (Suc-W[Trp(5-Cl)][Hyp]E[dL]C[Thp]LIC[X1]K(DOTA(Lu))-NH2; linker 6-10 via Pyridine(2,6-diCH2)) |  |  | IC50 ([2]; pIC50 Category, competition with 20 nM GIP-057, 4° C., 1 hour): < 10 nM
8 | CC[C@H](C)[C@@H]1NC(=O)[C@H](CC(C)C)NC(=O)C2(CCOCC2)NC(=O)[C@@H](NC(=O)[C@@H](CC(C)C)NC(=O)[C@H](CCC(=O)O)NC(=O)[C@@H]2C[C@@H](NC(=O)CN3CCN(CC(=O)O)CCN(CC(=O)O)CCN(CC(=O)O)CC3)CN2C(=O)[C@H](Cc2c[nH]c3ccc(Cl)cc23)NC(=O)[C@H](Cc2ccccc2Cl)NC(=O)[C@H](CC(=O)O)NC(C)=O)CSCc2cccc(n2)CSC[C@@H](C(N)=O)NC1=O [GIP-390, Ac-Asp-Ocf-5Clw-Tap (DOTA)-Glu-leu-[Cys(2Lut)-Thp-Leu-Ile-Cys]-NH2] (Ac-D[Phe(2-Cl)][Trp(5-Cl)][Pro(trans-4-NH2)](DOTA)E[dL]C[Thp]LIC-NH2; linker 7-11 via Pyridine(2,6-diCH2)) |  |  | IC50 [2, 4]: 10 to 79.4 nM
9 | CC[C@H](C)[C@@H]1NC(=O)[C@H](CC(C)C)NC(=O)C2(CCOCC2)NC(=O)[C@@H](NC(=O)[C@@H](CC(C)C)NC(=O)[C@H](CCC(=O)O)NC(=O)[C@@H]2C[C@@H](O)CN2C(=O)[C@H](Cc2c[nH]c3ccc(Cl)cc23)NC(=O)[C@H](Cc2c[nH]c3ccccc23)NC(=O)[C@H](CCO)NC(C)=O)CSCc2cccc(n2)CSC[C@@H](C(N)=O)NC1=O [GIP-195, Ac-Hse-Trp-5Clw-Hyp-Glu-leu-[Cys(2Lut)-Thp-Leu-Ile-Cys]-NH2] (Ac-[hSer]W[Trp(5-Cl)][Hyp]E[dL]C[Thp]LIC-NH2; linker 7-11 via Pyridine(2,6-diCH2)) |  | < 10 nM | 
10 | CC[C@H](C)[C@@H]1NC(=O)[C@H](CC(C)C)NC(=O)C(C)(C)NC(=O)[C@@H](NC(=O)[C@@H](CC(C)C)NC(=O)[C@H](CCC(=O)O)NC(=O)[C@@H]2[C@@H](O)CCN2C(=O)[C@H](Cc2c[nH]c3ccc(Cl)cc23)NC(=O)[C@H](Cc2c[nH]c3ccccc23)NC(=O)[C@H](CC(=O)O)NC(=O)CCC(=O)NCCCOCCOCCOCCCNC(=O)CN2CCN(CC(=O)O)CCN(CC(=O)O)CCN(CC(=O)O)CC2)CSCc2cccc(c2)CSCCNC1=O [GIP-102, DOTA-Ttds-Asp-Trp-5Clw-H3p-Glu-leu-[Cys(3MeBn)-Aib-Leu-Ile-AET]] ({X3-Suc}-DW[Trp(5-Cl)][Pro(3S-OH)]E[dL]C[Aib]LI; linker 7-C via X7) |  | < 10 nM | 
